Experiments:
[1] = set-up: method as in PMID 7180778; conditions: cited from earlier work
[2] = biological target: T1, murine Abcg2 (Mus musculus, UniProt Q7TMS5); assay: Tissue distribution in wild-type and Abcg2−/− male mice; format: in vivo; set-up: from tissue; host or cells: whole animal: wild-type vs Abcg2-/- mice, >99% FVB/N background
T1 sequence (Q7TMS5 1-657): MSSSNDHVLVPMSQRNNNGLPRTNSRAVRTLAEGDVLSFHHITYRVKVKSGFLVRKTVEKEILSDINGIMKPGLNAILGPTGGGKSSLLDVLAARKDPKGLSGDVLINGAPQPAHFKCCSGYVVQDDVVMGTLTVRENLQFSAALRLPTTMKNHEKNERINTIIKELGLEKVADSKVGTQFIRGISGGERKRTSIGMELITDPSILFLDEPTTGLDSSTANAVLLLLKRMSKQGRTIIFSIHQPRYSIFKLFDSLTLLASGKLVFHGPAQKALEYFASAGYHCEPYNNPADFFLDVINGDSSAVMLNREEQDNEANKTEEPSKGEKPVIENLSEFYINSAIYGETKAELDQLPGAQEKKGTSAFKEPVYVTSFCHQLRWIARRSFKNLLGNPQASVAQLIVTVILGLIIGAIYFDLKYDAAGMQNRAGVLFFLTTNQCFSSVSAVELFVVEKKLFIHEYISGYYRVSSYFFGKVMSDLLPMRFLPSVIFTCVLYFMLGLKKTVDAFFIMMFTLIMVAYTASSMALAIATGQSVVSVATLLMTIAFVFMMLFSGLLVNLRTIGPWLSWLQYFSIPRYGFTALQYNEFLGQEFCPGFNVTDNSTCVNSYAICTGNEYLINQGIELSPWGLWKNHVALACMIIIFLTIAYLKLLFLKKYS
Description: (§1) All in vivo experiments were carried out using wild-type and Abcg2^−/− mice aged between 8 and 17 weeks, all of >99% FVB/N genetic background, generated and gently supplied by A. H. Schinkel (Netherlands Cancer Institute). Mice were housed and handled complying with institutional and ARRIVE guidelines and European legislation (EU Directive 2010/63/EU for animal experiments). Additionally, experimental procedures were approved by the Animal Care and Use Committee of the University of León and the Junta de Castilla y León (ULE_011_2019).
(§2) For pharmacokinetic experiments, a single dose of nitroxynil at 10 mg/kg was administered subcutaneously to wild-type and Abcg2^−/− male mice (n = 4–5, for each time point). Distomicide® (250 mg/mL) commercial solution was dissolved in saline (sodium chloride 0.9%) and dosed at 200 μL per 30 g body weight. Blood samples were collected at different time points (0.5, 3, 4.5, 6, 24, 48 and 96 h) and heparinized blood samples were centrifugated for 15 min at 3000× g. Organs were also collected at 24 and 96 h after euthanasia. Linear trapezoidal rule was used to calculate the area under the plasma concentration–time curve (AUC) parameter.
Plasma, milk and tissue samples from each animal were individually processed and analyzed without pooling, while samples from transport assays were not processed. Tissue samples were homogenized in a mixture of 50% water/50% methanol HCl 0.5% (v/v); 1 mL solution per 0.1 g tissue. The entire amount of collected milk (74.7–295.1 mg) and 100 μL plasma and tissue homogenates were processed. To each sample, 10 μL of a nitrofurantoin solution (10 μg/mL for plasma and milk and 2 μg/mL for homogenized tissues) was added as an internal standard and 150 μL acetonitrile was used to precipitate the proteins. The mixture was vortexed horizontally for 15 min and centrifugated at 10,000× g for 5 min at 4 °C. Supernatant was transferred to a new tube and dried at 40 °C under N2 stream. Samples were reconstituted in 100 μL of mobile phase and 50 μL was injected into HPLC. Standards were subjected to the same procedures as samples.
Waters 2695 separation module and Waters 2998 UV photodiode array detector set at 270 nm were used for samples analysis. Chromatographic conditions for nitroxynil detection were based on previously described methods, with minor modifications. Chromatographic separation was achieved on a reverse-phase column (Synergy 4 μm Hydro–RP 80 Å, 250 × 4.60 mm; Phenomenex®, Torrance, CA, USA) using an isocratic binary mobile phase consisting of 25 mM potassium phosphate monobasic (KH2PO4), pH 4: acetonitrile (70:30 for culture samples and 80:20 for animal samples) at a flow rate of 1 mL/min. Autosampler and column temperature were 4 °C and 40 °C, respectively. Limit of detection (LOD) and quantification (LOQ) were calculated as previously described. For cell culture samples, LOD and LOQ were 0.003 μg/mL and 0.007 μg/mL, respectively. For in vivo samples, LOD was in the range of 0.01–0.07 μg/mL and LOQ in the range of 0.03–0.15 μg/mL.

[3] = set-up: method as in PMID 21657788; conditions: cited from earlier work
[4] = system: murine Abcg2; assay: Plasma pharmacokinetics in wild-type and Abcg2−/− male mice; format: in vivo; conditions: 10 mg/kg s.c.
Description: as §1
as §2, with “Organs were also collected at 24 and 96 h after euthanasia. Linear trapezoidal rule was used to calculate the area under the plasma concentration–time curve (AUC) parameter.” left out
Plasma, milk and tissue samples from each animal were individually processed and analyzed without pooling, while samples from transport assays were not processed. […]
Waters 2695 separation module and Waters 2998 UV photodiode array detector set at 270 nm were used for samples analysis. […] Limit of detection (LOD) and quantification (LOQ) were calculated as previously described. […]

[5] = wild-type male mice, 96 h, 10 mg/kg s.c.

Concentration in kidney, small intestine and testis, fold higher in Abcg2−/− mice ([2]; abstract statement, time not given): ~2 fold
Small intestine levels, fold higher in Abcg2−/− compared with wild-type ([2]; male mice, 24 h, 10 mg/kg s.c.): 1.4 fold
Spleen accumulation, fold higher in Abcg2−/− compared with wild-type ([2]; male mice, 24 h, 10 mg/kg s.c.): 1.7 fold
Testis concentration, fold higher in Abcg2−/− compared with wild-type ([2]; male mice, 24 h, 10 mg/kg s.c.): ~1.6 fold
Tissue concentration, liver [2, 5]: <LOQ
Tissue concentration, small intestine [2, 5]: <LOQ
Tissue concentration, spleen [2, 5]: <LOQ
Tissue concentration, testis [2, 5]: <LOQ
AUC ([4]; FVB/N, mouse, plasma, sc, Abcg2−/− male mice, 0.5-96 h): 3530 ± 130 µg·h/mL
Time of Cmax (sampling point) ([4]; both type of mice (wild-type and Abcg2−/−), male): 3 h
Compound: N#Cc1cc(I)c(O)c([N+](=O)[O-])c1 [nitroxynil]
Time after treatment at which residues have been found in tissues [1]: ≤ 90 days
Time after treatment at which residues have been found in milk [3]: up to 58 days

Source: PMC11054271, “ABCG2 Transports the Flukicide Nitroxynil and Affects Its Biodistribution and Secretion into Milk” (Pharmaceutics, 2024)
